Laboratory results from article PMC5613016, “GRL-09510, a Unique P2-Crown-Tetrahydrofuranylurethane -Containing HIV-1 Protease Inhibitor, Maintains Its Favorable Antiviral Activity against Highly-Drug-Resistant HIV-1 Variants in vitro” (Scientific Reports, 2017).
Where two headings read alike, the source gives them in different places.

What was measured:
HIV-1MDR/TM = test: p24 production inhibition in PHA-PBMC; format: cell-based; conditions: Human immunodeficiency virus 1, PHA-PBMC, p24 Gag production
Protocol: (§1) The susceptibility of HIV-1LAI or HIV-2ROD to various compounds was determined as previously described[20]–[22]. Briefly, MT-2 cells (10^4/ml) were exposed to 100 TCID50 of HIV-1LAI or HIV-2ROD in the presence or absence of various concentrations of compounds in 96-well plates and were incubated at 37 °C for 7 days. After incubation, 100 μl of the medium was removed from each well, 3-(4,5-dimetylthiazol-2-yl)-2,5-diphenyltetrazolium bromide (MTT) solution (10 μl, 7.5 mg/ml in PBS) was added to each well, followed by incubation at 37 °C for 2 h. […] To determine the sensitivity of clinically isolated HIV-1s to compounds, PHA-PBMC (10^6/ml) were exposed to 50 TCID50 of each HIV-1 and cultured in the presence or absence of various concentrations of compounds in 10-fold serial dilutions in 96-well plates. In determining the drug-susceptibility of certain laboratory HIV-1 strains, MT-4 cells were employed as target cells as previously described[23],[24]. MT-4 cells (10^5/ml) were exposed to 100 TCID50 of drug-resistant HIV-1s in the presence or absence of various concentrations of compounds and were incubated at 37 °C. On day 7, the supernatants were harvested and the amounts of p24 were determined by using a fully-automated chemiluminescent enzyme immunoassay system (Lumipulse f: Fujirebio, Tokyo)[35]–[37]. […] All assays were performed in duplicate, and EC50 shown in this report represent average values of two to four independent experiments. PHA-PBMCs were derived from a single donor in each independent experiment. The research protocols described in the present study were carried out in accordance with relevant guidelines and regulations, and were approved in Ethics Committee for Epidemiological and General Research at the Faculty of Life Sciences, Kumamoto University.

[1] = tested on: HIV-1ERS104pre (wild-type); test: p24 production inhibition in PHA-PBMC; format: cell-based; conditions: Human immunodeficiency virus 1, PHA-PBMC, p24 Gag production
Protocol: as §1

HIV-1MDR/G [2] = test: p24 production inhibition in PHA-PBMC; format: cell-based; conditions: Human immunodeficiency virus 1, PHA-PBMC, p24 Gag production
Protocol: as §1

HIV-1MDRmix DRV ^R 20P = test: p24 production inhibition in PHA-PBMC; format: cell-based; conditions: Human immunodeficiency virus 1, read-out: EC50 HIV-1MDRmix DRV ^R 20P, PHA-PBMC, p24 Gag production
Protocol: as §1

HIV-1MDR/B = test: p24 production inhibition in PHA-PBMC; format: cell-based; conditions: Human immunodeficiency virus 1, PHA-PBMC, p24 Gag production
Protocol: as §1

HIV-1MDR/C = test: p24 production inhibition in PHA-PBMC; format: cell-based; conditions: Human immunodeficiency virus 1, PHA-PBMC, p24 Gag production
Protocol: as §1

HIV-1LPV ^R 5μM = test: p24 production inhibition in MT-4 cells; format: cell-based; conditions: Human immunodeficiency virus 1, MT4, read-out: EC50 HIV-1LPV ^R 5μM, MT-4 cells, p24 Gag production
Protocol: as §1

HIV-1APV ^R 5μM [3] = test: p24 production inhibition in MT-4 cells; format: cell-based; conditions: Human immunodeficiency virus 1, MT4, read-out: EC50 HIV-1APV ^R 5μM, MT-4 cells, p24 Gag production
Protocol: as §1

HIV-1ATV ^R 5μM = test: p24 production inhibition in MT-4 cells; format: cell-based; conditions: Human immunodeficiency virus 1, MT4, read-out: EC50 HIV-1ATV ^R 5μM, MT-4 cells, p24 Gag production
Protocol: as §1

HIV-1_9510 ^R 36P = test: p24 production inhibition in MT-4 cells; format: cell-based; conditions: for EC50: Human immunodeficiency virus 1, MT4, read-out: EC50 HIV-19510RP36
Protocol: as §1

HIV-2ROD = test: microbe, parasite or virus in culture; format: cell-based; conditions: Human immunodeficiency virus 2, MT2, MT-2 cells, 100 TCID50, MTT assay; read-out: EC50 Against HIV-2ROD
Protocol: as §1

HIV-1LAI = test: microbe, parasite or virus in culture; format: cell-based; conditions: Human immunodeficiency virus 1, MT2, MT-2 cells, 100 TCID50, MTT assay; read-out: EC50 Against HIV-1LAI
Protocol: as §1

[4] = Cytotoxicity against MT-2 cells (MTT assay); format: cell-based; conditions: human
Protocol: as §1

HIV-1NL4-3 [5] = conditions: MT-4 cells, p24 assay, previously reported; and 22; cited from earlier work
HIV-1MDR/G [6] = tested on: HIV-1MDR/G; parameters: method as in earlier work; conditions: and 22, cited from earlier work
HIV-1APV ^R 5μM [7] = tested on: HIV-1APV ^R 5μM; parameters: method as in earlier work; conditions: and 22, cited from earlier work
[8] = tested on: HIV-1ERS104pre (wild-type); conditions: PHA-PBMs, p24 assay, previously reported; and 22; read-out: EC50 HIV-1WT/ERS104pre; cited from earlier work
HIV-1NL4-3 [9] = test: p24 production inhibition in MT-4 cells; format: cell-based; conditions: Human immunodeficiency virus 1, MT4, MT-4 cells, p24 Gag production, Supplemental Table 3
Protocol: as §1

HIV-1NL4-3 [10] = test: In vitro selection of resistant HIV-1 variants in MT-4 cells; format: cell-based; conditions: HIV-1NL4-3 in MT-4 cells, increasing concentrations
Source text: MT-4 cells (10^5/ml) were exposed to HIV-1NL4-3 (500 TCID50) and cultured in the presence of compounds at an initial concentration of its EC50 value. Viral replication was monitored by the determination of the amount of p24 produced by MT-4 cells. The supernatants were harvested on day 7 and were used to infect fresh MT-4 cells for the next round of culture in the presence of increasing concentrations of each compound. Proviral DNAs obtained from the lysates of infected cells were subjected to sequencing. This selection procedure was carried out until the drug concentration reached 5 μM as previously described[20]–[22]).

Structure (SMILES): Cc1cccc(C)c1OCC(=O)N[C@@H](Cc1ccccc1)[C@@H](O)C[C@H](Cc1ccccc1)NC(=O)[C@H](C(C)C)N1CCCNC1=O [LPV, Lopinavir]
- EC50 (HIV-1MDR/TM): 0.55 ± 0.09 µM
- EC50 [1]: 0.028 ± 0.002 µM
- EC50 (HIV-1MDR/G [2]): 0.18 ± 0.02 µM
- EC50 (HIV-1MDRmix DRV ^R 20P): > 1 µM
- EC50 (HIV-1MDR/B): > 1 µM
- EC50 (HIV-1MDR/C): 0.39 ± 0.05 µM
- EC50 (HIV-1LPV ^R 5μM): > 1 µM
- EC50 (HIV-1APV ^R 5μM [3]): 0.4 ± 0.01 µM
- EC50 (HIV-1ATV ^R 5μM): > 1 µM
- EC50 (HIV-1_9510 ^R 36P): 0.4 ± 0.02 µM
- EC50 (HIV-2ROD): 0.021 ± 0.007 µM
- EC50 (HIV-1LAI): 0.023 ± 0.003 µM
- CC50 [4]: 26.7 ± 4.2 µM

Structure (SMILES): CC(C)CN(C[C@@H](O)[C@H](Cc1ccccc1)NC(=O)O[C@H]1CO[C@H]2OCC(F)(F)[C@H]21)S(=O)(=O)c1ccc(N)cc1 [GRL-05010]
- EC50 (HIV-1NL4-3 [5]): 0.0037 ± 0.0001 µM
- EC50 (HIV-1MDR/G [6]; PHA-PBMs, p24 assay, previously reported): 0.004 ± 0.001 µM
- fold change in EC50 HIV-1MDR/G (HIV-1MDR/G [6]; compared to HIV-1WT/ERS104pre, previously reported data): 1
- EC50 (HIV-1APV ^R 5μM [7]; MT-4 cells, p24 assay, previously reported, read-out: EC50 HIV-1APVR5M): 0.56 ± 0.03 µM
- fold change in EC50 HIV-1APVR5M (HIV-1APV ^R 5μM [7]; compared to HIV-1NL4-3, previously reported data): 187
- EC50 [8]: 0.0027 ± 0.0003 µM

Structure (SMILES): CC(C)(C)NC(=O)[C@@H]1C[C@@H]2CCCC[C@@H]2CN1C[C@@H](O)[C@H](Cc1ccccc1)NC(=O)[C@H](CC(N)=O)NC(=O)c1ccc2ccccc2n1 [SQV, saquinavir]
- EC50 (HIV-1NL4-3 [9]): 0.018 ± 0.001 µM
- EC50 (HIV-1_9510 ^R 36P): 0.041 ± 0.009 µM
- fold change of EC50 HIV-19510RP36 (HIV-1_9510 ^R 36P; compared to EC50 for HIV-1NL4-3, Supplemental Table 3): 2

Structure (SMILES): Cc1nnc(C(=O)NC(C)(C)c2nc(C(=O)NCc3ccc(F)cc3)c(O)c(=O)n2C)o1 [RAL, Raltegravir]
- passage at which selection concentration reached 5 µM (HIV-1NL4-3 [10]): ≥ 20
